From US9814789B2, “Radiopharmaceutical products for diagnosis and therapy of adrenal carcinoma” (JULIUS-MAXIMILIANS-UNIVERSITÄT WÜRZBURG, priority 2012, dated 2017)
Where two headings read alike, the source gives them in different places.

Legend:
[1] = biological target: T1, human Cyp11B2, aldosterone synthase (Homo sapiens, UniProt P19099); assay: Cyp11B2 (aldosterone synthase) inhibition in stably transfected Y1-Cyp11B2 cells, substrate 11-deoxycorticosterone (DOC); format: cell-based
T1 construct: the full-length cDNAs for the proteins were subcloned into the multicloning site of pcDNA3.1 (zeo); expressed in transfected cells
T1 sequence (P19099 25-503): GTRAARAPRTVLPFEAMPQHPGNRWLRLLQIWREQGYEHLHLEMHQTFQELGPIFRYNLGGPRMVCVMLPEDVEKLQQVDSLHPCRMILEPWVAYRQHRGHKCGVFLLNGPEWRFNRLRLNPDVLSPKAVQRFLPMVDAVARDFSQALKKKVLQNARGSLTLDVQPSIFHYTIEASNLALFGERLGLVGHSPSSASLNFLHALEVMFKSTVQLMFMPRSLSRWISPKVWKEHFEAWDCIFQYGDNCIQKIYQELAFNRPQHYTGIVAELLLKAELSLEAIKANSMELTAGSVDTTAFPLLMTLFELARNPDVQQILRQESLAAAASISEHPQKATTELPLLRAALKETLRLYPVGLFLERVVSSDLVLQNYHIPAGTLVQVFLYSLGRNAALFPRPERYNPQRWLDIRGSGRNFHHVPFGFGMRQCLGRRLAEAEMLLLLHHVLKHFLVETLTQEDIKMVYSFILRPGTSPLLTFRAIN
From the text: (§1) Plasmid constructs and transfection: To induce expression of human cytochrome P450 family 11B1 (Cyp11B1) and Cyp11B2 enzymes in Y1 cells, the full-length cDNAs for the proteins were subcloned into the multicloning site of pcDNA3.1 (zeo) (Invitrogen, Eggenstein, Germany). The cDNA fragments were isolated by PCR and digested by EcoRI. The individual fragments were ligated into the linearized vectors digested by EcoRI. Human Cyp11B1 and Cyp11B2 enzymes were expressed in Y1 cells using liposome/lipid-mediated DNA transfection. Purified plasmid DNA was mixed with Lipofectamine (Invitrogen) transfection reagents according to the manufacturer's protocol. To generate a stable Y1-Cyp11B1 and Y1-Cyp11B2 cell line, Y1 cells were transfected with the pcDNA3.1 (zeo)-Cyp11B1 and pcDNA3.1 (zeo)-Cyp11B2 vector, respectively.
(§2) Transfected cells were selected with 1000 μg/ml zeocin (Invitrogen). To screen colonies, Western blotting and real-time PCR were used to determine the level of Cyp11B1 and Cyp11B2 expression. Colonies with the highest Cyp11B expression were further tested for their ability to synthesize cortisol or aldosterone from deoxycortisol (RSS) and 11-deoxycorticosterone (DOC), respectively. Experimental protocols were standardized regarding substrate concentrations and incubation periods.
The enzyme reaction was started after 24 hours by the addition of 1 ml culture medium containing either 11-deoxycortisol (RSS) or 11-deoxycorticosterone (DOC) as substrate and the corresponding inhibitor. RSS and DOC were dissolved in ethanol to a final test concentration of 1 μM. […] Y1-Cyp11B1 and Y1-Cyp11B2 cells, which were treated in the same way but without inhibitors, served as controls. As further controls, untransfected Y1 cells were also incubated with RSS and DOC, respectively. Both RSS and DOC were obtained from Sigma (Deisenhofen, Germany).

[2] = biological target: T2, human cytochrome P450 family 11B1 (Cyp11B1), 11β-hydroxylase (Homo sapiens, UniProt P15538); assay: Cyp11B1 (11β-hydroxylase) inhibition in stably transfected Y1-Cyp11B1 cells, substrate 11-deoxycortisol (RSS); format: cell-based
T2 construct: the full-length cDNAs for the proteins were subcloned into the multicloning site of pcDNA3.1 (zeo); expressed in transfected cells
T2 sequence (P15538 25-503): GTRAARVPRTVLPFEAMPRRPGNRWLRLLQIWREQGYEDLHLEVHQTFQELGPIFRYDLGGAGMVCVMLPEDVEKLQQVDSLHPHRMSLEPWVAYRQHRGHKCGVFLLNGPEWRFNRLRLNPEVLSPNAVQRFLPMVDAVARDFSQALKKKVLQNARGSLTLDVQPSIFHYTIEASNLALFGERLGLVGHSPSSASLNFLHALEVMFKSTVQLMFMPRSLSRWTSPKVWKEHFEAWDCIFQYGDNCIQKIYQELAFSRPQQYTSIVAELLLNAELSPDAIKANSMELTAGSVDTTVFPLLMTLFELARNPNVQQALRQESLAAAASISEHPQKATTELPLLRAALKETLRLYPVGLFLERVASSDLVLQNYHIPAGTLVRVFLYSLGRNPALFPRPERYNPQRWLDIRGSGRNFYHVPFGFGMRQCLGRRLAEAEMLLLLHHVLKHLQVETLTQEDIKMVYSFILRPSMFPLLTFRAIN
From the text: as §1, §2
In vitro evaluation of specificity: To evaluate Cyp11B1 and Cyp11B2 inhibition by the inventive compounds, Y1-Cyp11B1 and Y1-Cyp11B2 cells were subcultured on six-well plates (0.5×10^6 cells per well) in 2 ml culture medium.
The enzyme reaction was started after 24 hours by the addition of 1 ml culture medium containing either 11-deoxycortisol (RSS) or 11-deoxycorticosterone (DOC) as substrate and the corresponding inhibitor. RSS and DOC were dissolved in ethanol to a final test concentration of 1 μM. For determination of IC50 values, the inhibitors were added to the culture medium at concentrations between 0.6 nM and 60 μM and incubated for 48 h. Y1-Cyp11B1 and Y1-Cyp11B2 cells, which were treated in the same way but without inhibitors, served as controls. As further controls, untransfected Y1 cells were also incubated with RSS and DOC, respectively. Both RSS and DOC were obtained from Sigma (Deisenhofen, Germany).

[3] = tested on: adrenal gland and other organs; assay: Biodistribution in mice; format: in vivo; settings: male CD-1 mice, i.v. 37 kBq, 15 min to 4 h
Experimental: The biodistribution of IMTO, (R)-1-[1-(4-iodophenyl)ethyl]-1H-imidazole-5-carboxylic acid ethyl-methyl amide (compound 2a) and (R)-1-[1-(4-iodophenyl)ethyl]-1H-imidazole-5-carboxylic acid azetidinylamide (compound 2e) has been assessed in mice as follows. Male CD-1 mice were injected iv with 1 μCi (37 kBq) (R)-1-[1-(4-[^125I]iodophenyl)ethyl]-1H-imidazole-5-carboxylic acid ethyl-methyl amide. At predefined time points (15 min, 30 min, 2 h, and 4 h), mice were killed (n 6 per time point). Blood was collected, and heart, lung, liver, intestine, stomach, spleen, kidneys, adrenals, testes, brain and other organs were excised and weighed. Radioactivity was measured using a gamma-counter.

adrenal glands = assay: Uptake in adrenal glands in mice, ex vivo gamma counting; settings: male CD-1 mice; for uptake in adrenal glands compared to IMTO: i.v. 1 μCi (37 kBq), 15, 30, 120 and 240 min, 2a especially after 120 and 240 minutes, 2e at any time point
Experimental: The uptake of IMTO, (R)-1-[1-(4-iodophenyl)ethyl]-1H-imidazole-5-carboxylic acid ethyl-methyl amide (compound 2a) and (R)-1-[1-(4-iodophenyl)ethyl]-1H-imidazole-5-carboxylic acid azetidinylamide (compound 2e) in adrenal glands in mice in ex vivo experiments has been examined as follows. Male CD-1 mice were injected i.v. with 1 μCi (37 kBq) IMTO, (R)-1-[1-(4-[^125I]iodophenyl)ethyl]-1H-imidazole-5-carboxylic acid ethyl-methyl amide or (R)-1-[1-(4-iodophenyl)ethyl]-1H-imidazole-5-carboxylic acid azetidinylamide (compound 2e). At predefined time points (15 min, 30 min, 120 min, and 240 min) mice were killed (n≧6 per time point) and adrenals were excised and weighed. Radioactivity was measured using a gamma-counter.

[4] = Metabolization of IMTO in the blood of patients; settings: iodometomidate acid identified after few minutes as product of enzymatic hydrolysis
Cyp11B1 = biological target: T3, Cyp11B1 (Homo sapiens, UniProt P15538); settings: in contrast to IMTO; cited from earlier work
T3 sequence (P15538 25-503): T2 sequence (P15538 25-503)

CYP11B2 = biological target: T4, CYP11B2 (Homo sapiens, UniProt P19099); settings: in contrast to IMTO; cited from earlier work
T4 sequence (P19099 25-503): T1 sequence (P19099 25-503)

adrenocortical carcinoma = settings: advanced disease, retrospective analyses; cited from earlier work
[5] = Y1-Cyp11B2 cells, 1 μM DOC, 48 h incubation, read-out: IC50 aldosterone synthase
[6] = Y1-Cyp11B1 cells, 1 μM RSS, 48 h incubation, read-out: IC50 11β-hydroxylase

SMILES: CCN(C)C(=O)c1cncn1[C@H](C)c1ccc(I)cc1 [2a, (R)-1-[1-(4-Iodophenyl)ethyl]-1H-imidazole-5-carboxylic acid ethylmethylamide]
- IC50 [1]: 4.2 ± 0.37 nM
- IC50 [2]: 3.9 ± 0.6 nM
- biodistribution: organ of predominant uptake [3]: predominately in adrenal gland
- uptake in adrenal glands compared to IMTO (adrenal glands): increased

SMILES: CCN(CC)C(=O)c1cncn1[C@H](C)c1ccc(I)cc1 [2b]
- IC50 [1]: 10.9 ± 2.02 nM
- IC50 [2]: 36.6 nM

SMILES: C[C@H](c1ccc(I)cc1)n1cncc1C(=O)N1CCC1 [2e, (R)-1-[1-(4-Iodophenyl)ethyl]-1H-imidazole-5-carboxylic acid azetidinylamide]
- IC50 [1]: 1.22 ± 0.08 nM
- IC50 [2]: 3.16 ± 0.14 nM
- biodistribution: organ of predominant uptake [3]: predominately in adrenal gland
- uptake in adrenal glands compared to IMTO (adrenal glands): greatly increased
- factor of increase of adrenal uptake compared to IMTO (adrenal glands; i.v., after 240 minutes): about 10

SMILES: C[C@H](c1ccc(I)cc1)n1cncc1C(=O)N1CCCCC1 [2g]
- IC50 [1, 5]: 5.5 ± 2.2 nM
- IC50 [2, 6]: 11.7 nM

SMILES: C[C@H](c1ccc(I)cc1)n1cncc1C(=O)N1CCOCC1 [2h]
- IC50 [1, 5]: 182 nM
- IC50 [2, 6]: 805 nM

SMILES: C[C@H](c1ccc(I)cc1)n1cncc1C(=O)N(C)C [2i]
- IC50 [1]: 15.7 nM
- IC50 [2]: > 1000 nM

SMILES: C[C@H](c1ccc(I)cc1)n1cncc1C(N)=O [2j]
- IC50 [1]: 1410 ± 2070 nM
- IC50 [2]: 329 ± 310 nM

SMILES: C[C@H](c1ccc(I)cc1)n1cncc1C(=O)NCCO [2k]
- IC50 [1]: 221 ± 168 nM
- IC50 [2]: 336 ± 398 nM

SMILES: CCCN(C)C(=O)c1cncn1[C@H](C)c1ccc(I)cc1 [2l]
- IC50 [1]: 3.5 ± 7.5 nM
- IC50 [2]: 74.7 nM

SMILES: CC(C)N(C)C(=O)c1cncn1[C@H](C)c1ccc(I)cc1 [2m]
- IC50 [1]: 147 ± 61.9 nM
- IC50 [2]: 78.2 nM

SMILES: CCCN(CC)C(=O)c1cncn1[C@H](C)c1ccc(I)cc1 [2n]
- IC50 [1]: 390 ± 170 nM
- IC50 [2]: 1320 nM

SMILES: Cc1nnc(-c2cncn2[C@H](C)c2ccc(I)cc2)o1 [6a]
- IC50 [1, 5]: 90.1 nM
- IC50 [2, 6]: 10.6 ± 9.2 nM

SMILES: COC(=O)c1cncn1[C@H](C)c1ccc(I)cc1 [iodometomidate (IMTO), 4-Iodometomidate, reference compound]
- biological half-life in the blood of patients [4]: very limited
- IC50 [1]: 2 ± 2.3 nM
- IC50 [2]: 2.6 ± 1.1 nM

SMILES: C[C@H](c1ccc(I)cc1)n1cncc1C(=O)O [iodometomidate acid, (R)-1-[1-(4-Iodophenyl)ethyl]-1H-imidazole-5-carboxylic acid]
- affinity to Cyp11B1 (Cyp11B1): little or no affinity
- affinity to CYP11B2 (CYP11B2): little or no affinity

SMILES: Clc1ccc(C(c2ccccc2Cl)C(Cl)Cl)cc1 (centres unmarked) [mitotane]
- overall response rate (adrenocortical carcinoma): 26%
